Tests used:
Type in all cases: biochemical
EGFR = target: T1, EGFR (Homo sapiens, UniProt P00533); experiment: EGFR Kinase Assay; conditions: for IC50: GST-EGFR, ATP 5 μM
T1 construct: The intracellular portion of EGFR started at nucleotide 2189 (corresponding to amino acid 667) and ended at the termination codon; made in house; host or cells: Sf9 insect cells (baculovirus)
Summary of the method: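 Potency came from triplicate 16-point half-log titrations starting at 200 uM, with IC50 fitted from % inhibition against log concentration, or % inhibition at 2 μM otherwise. Reaction: Sf9-made GST–EGFR cytoplasmic region (aa 667 onward), biotin-polyGluTyr, 5 μM ATP with 33P tracer, pH 8.0 Tris/Mg/vanadate/DTT, 30 °C for 1 h; captured on streptavidin Flashplates and counted.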

c-Src kinase (human) = target: T2, c-Src kinase (human) (Homo sapiens, UniProt P12931); experiment: c-Src Kinase Assay; conditions: test concentration of 2 μM; multiple values are separate assay results
T2 construct: purchased Upstate Biotechnology, Lake Placid, N.Y
Description: A mixture of a 10× kinase buffer (80 mM MOPS at pH 7.0, 2 mM EDTA and 100 mM Magnesium Chloride), ATP (5 μM final from a 10 mM stock), a Cdc2 peptide KVEKIGEGTYGVVYK (100 μM final from a 2.5 mM stock), γ-^33P ATP (10 μCl/μL stock) and water (for a total of 20 μL/well) was added to each well of a Streptavidin Flashplate.
Test compound in 100% DMSO (0.5 μL) was added to the appropriate wells. Diluted c-Src kinase (human) (Accession Number SWISS-PROT P12931) (Upstate Biotechnology, Lake Placid, N.Y.) (diluted in a buffer consisting of 20 mM MOPS at pH 7.0, 1 mM EDTA, β-mercaptoethanol (0.1%), Brij-35 (0.01%), glycerol (5%), and 1 mg/mL bovine serum albumin) (2.5 μL) was added to the wells to initiate the reactions. The reaction plates were incubated at 30° C. for 40 min. The reaction was terminated by the addition of a 3% phosphoric acid solution (5 μL). The reaction product (10 μL) was spotted onto a P30 filtermat and washed for 5 minutes in phosphoric acid (75 mM). The wash sequence was repeated two more times, followed with one final wash in methanol. The plates were then dried, sealed and read on the TopCount scintillation counter after adding 30 μL scintillation fluid.
(§1) The c-Src inhibition values were derived using the percent inhibition formula provided in Example 164 and are shown as percent in Table 2 at a test concentration of 2 μM. For those compounds with an IC50, the IC50 value in μM is shown in parentheses. For compounds with multiple test values, each value represents a separate assay result.

Lyn kinase (human) = target: T3, Lyn kinase (human) (Homo sapiens, UniProt P07948); experiment: Lyn Kinase Assay; conditions: test concentration of 2 μM
T3 construct: purchased Upstate Biotechnology, Lake Placid, N.Y
Description: A mixture of a 10× kinase buffer (500 mM MOPS at pH 7.5, 1 mM EGTA, 1 mM Sodium Vanadate, 1% β-mercaptoethanol and 100 mM Magnesium Acetate), ATP (5 μM final from a 10 mM stock), polyGluTyr (0.1 mg/mL final from a 1 mg/mL stock), γ-^33P ATP (10 μCl/μL stock) and water (for a total of 20 μL/well) was added to each well of a Streptavidin Flashplate.
Test compound in 100% DMSO (0.5 μL) was added to the appropriate wells. Diluted Lyn kinase (human)(Accession Number EMBL M16038) (Upstate Biotechnology, Lake Placid, N.Y.) (diluted in a buffer consisting of 50 mM Tris at pH 7.5, 0.1 mM EGTA, Sodium Vanadate (0.1 mM), β-mercaptoethanol (0.1%) and 1 mg/mL bovine serum albumin) (2.5 μL) was added to the wells to initiate the reactions.
The reaction plates were incubated at 30° C. for 40 min. The reaction was terminated by the addition of a 3% phosphoric acid solution (5 μL). The reaction product (10 μL) was spotted onto a P30 filtermat and washed for 5 minutes in phosphoric acid (75 mM). The wash sequence was repeated two more times, followed with one final wash in methanol. The plates were then dried, sealed and read on the TopCount scintillation counter after adding 30 μL scintillation fluid.
as §1, with “The Lyn” for “The c-Src”, “derived according to” for “derived using”, “the procedure described” for “the percent inhibition formula provided”, “Table 3” for “Table 2”

HER-2 = target: T4, HER-2 (Homo sapiens, UniProt P04626); experiment: HER-2 Kinase Assay; conditions: test concentration of 1 μM
T4 construct: His6 with thrombin site (N); purchased Proqinase (Freiburg, Germany)
Summary of the method: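 Read-out was scintillation counting of 33P incorporated into biotinylated polyGluTyr captured on streptavidin plates. Reactions ran 1 h at 30 °C with GST-fused HER-2 residues 679–1255, 1 μM ATP, Mn2+ and Mg2+ at pH 7.5; data given as percent inhibition at 1 μM, with IC50 where determined.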

T1 sequence (P00533 669-1210 limits assumed): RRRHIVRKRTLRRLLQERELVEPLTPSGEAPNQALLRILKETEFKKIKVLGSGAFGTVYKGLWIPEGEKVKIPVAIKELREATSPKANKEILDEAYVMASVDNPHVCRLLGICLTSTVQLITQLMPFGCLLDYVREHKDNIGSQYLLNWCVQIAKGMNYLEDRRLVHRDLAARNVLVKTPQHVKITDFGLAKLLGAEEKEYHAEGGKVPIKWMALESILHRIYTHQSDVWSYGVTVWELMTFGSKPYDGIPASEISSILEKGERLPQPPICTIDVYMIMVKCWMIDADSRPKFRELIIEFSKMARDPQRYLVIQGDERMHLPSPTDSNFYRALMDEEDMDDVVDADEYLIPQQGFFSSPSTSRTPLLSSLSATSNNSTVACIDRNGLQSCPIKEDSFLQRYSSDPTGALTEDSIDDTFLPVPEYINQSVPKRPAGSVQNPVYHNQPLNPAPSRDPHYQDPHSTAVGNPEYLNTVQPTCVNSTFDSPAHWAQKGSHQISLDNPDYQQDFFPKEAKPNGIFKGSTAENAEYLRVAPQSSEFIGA
T2 sequence (P12931 whole entry): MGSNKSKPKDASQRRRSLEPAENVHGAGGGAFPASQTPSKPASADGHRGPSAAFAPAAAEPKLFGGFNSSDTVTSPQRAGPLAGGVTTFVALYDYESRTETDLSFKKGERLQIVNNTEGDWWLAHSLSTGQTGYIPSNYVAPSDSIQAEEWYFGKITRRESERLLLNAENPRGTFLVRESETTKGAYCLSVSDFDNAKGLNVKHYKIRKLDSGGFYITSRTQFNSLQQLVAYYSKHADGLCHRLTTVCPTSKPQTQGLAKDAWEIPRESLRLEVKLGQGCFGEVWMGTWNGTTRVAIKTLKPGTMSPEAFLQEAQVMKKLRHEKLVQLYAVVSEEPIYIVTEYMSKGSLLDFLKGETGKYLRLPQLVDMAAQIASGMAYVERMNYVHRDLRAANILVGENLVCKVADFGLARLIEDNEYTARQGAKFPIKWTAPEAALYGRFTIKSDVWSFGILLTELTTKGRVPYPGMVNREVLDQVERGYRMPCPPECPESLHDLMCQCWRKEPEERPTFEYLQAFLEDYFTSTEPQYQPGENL
T3 sequence (P07948 whole entry): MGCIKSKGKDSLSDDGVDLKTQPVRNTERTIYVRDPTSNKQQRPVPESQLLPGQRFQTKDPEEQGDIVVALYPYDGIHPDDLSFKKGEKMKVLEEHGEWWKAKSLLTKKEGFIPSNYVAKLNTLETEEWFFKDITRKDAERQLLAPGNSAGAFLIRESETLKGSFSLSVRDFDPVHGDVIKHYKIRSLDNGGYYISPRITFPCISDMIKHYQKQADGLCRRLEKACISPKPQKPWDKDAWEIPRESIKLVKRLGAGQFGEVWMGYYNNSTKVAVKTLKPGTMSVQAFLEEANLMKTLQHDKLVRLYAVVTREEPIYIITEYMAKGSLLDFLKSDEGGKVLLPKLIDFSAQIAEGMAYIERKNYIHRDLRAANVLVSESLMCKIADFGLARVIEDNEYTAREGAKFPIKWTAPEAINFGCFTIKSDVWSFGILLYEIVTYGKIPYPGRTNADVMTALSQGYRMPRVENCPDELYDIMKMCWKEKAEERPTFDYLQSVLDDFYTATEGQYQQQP
T4 sequence (P04626 679-1255): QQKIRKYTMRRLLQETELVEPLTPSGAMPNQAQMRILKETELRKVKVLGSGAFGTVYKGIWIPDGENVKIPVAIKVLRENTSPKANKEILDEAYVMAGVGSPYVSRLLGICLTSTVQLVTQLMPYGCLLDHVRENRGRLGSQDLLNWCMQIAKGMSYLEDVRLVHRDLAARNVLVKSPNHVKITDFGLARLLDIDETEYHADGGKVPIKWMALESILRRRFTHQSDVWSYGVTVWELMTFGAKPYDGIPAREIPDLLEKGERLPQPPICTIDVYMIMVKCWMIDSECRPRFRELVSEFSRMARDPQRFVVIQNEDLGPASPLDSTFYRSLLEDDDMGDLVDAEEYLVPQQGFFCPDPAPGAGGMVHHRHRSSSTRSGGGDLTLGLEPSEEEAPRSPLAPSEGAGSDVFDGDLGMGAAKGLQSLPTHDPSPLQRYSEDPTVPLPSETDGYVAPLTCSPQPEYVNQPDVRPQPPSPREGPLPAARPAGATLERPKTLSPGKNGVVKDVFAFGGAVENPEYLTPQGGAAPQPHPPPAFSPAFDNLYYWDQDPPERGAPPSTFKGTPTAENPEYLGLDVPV

SMILES	IC50 (EGFR) [µM]	inhibition at 2 µM (c-Src kinase (human)) [%]	inhibition at 2 µM (Lyn kinase (human)) [%]	inhibition at 1 µM (HER-2) [%]	inhibition at 2 µM (EGFR; test concentration of 2 μM, compounds without an IC50, read-out: EGFR inhibition in percent) [%]
COc1cc(NC(=O)c2sc3ncnc4c3c2NC(=O)N4c2cc(OC)c(OC)c(OC)c2)ccc1OCC1CCCCO1 (stereo not drawn) [Cpd 31, 5-(3,4,5-trimethoxy-phenyl)-4-oxo-4,5-dihydro-3H-1-thia-3,5,6,8-tetraaza-acenaphthylene-2-carboxylic acid [3-methoxy-4-(tetrahydro-pyran-2-ylmethoxy)-phenyl]-amide]	42.7	8	-7	1	–
CN1CCCC(COc2ccc(NC(=O)c3sc4ncnc5c4c3NC(=O)N5c3ccc(Cl)cc3Cl)cc2)C1 (stereo not drawn) [Cpd 32, 5-(2,4-dichloro-phenyl)-4-oxo-4,5-dihydro-3H-1-thia-3,5,6,8-tetraaza-acenaphthylene-2-carboxylic acid [4-(1-methyl-piperidin-3-ylmethoxy)-phenyl]-amide]	0.58	32	38	33	–
COc1cc(N2C(=O)Nc3c(C(=O)Nc4ccc(CN5CCCCC5)cc4)sc4ncnc2c34)c(Cl)cc1Cl [Cpd 33, 5-(2,4-dichloro-5-methoxy-phenyl)-4-oxo-4,5-dihydro-3H-1-thia-3,5,6,8-tetraaza-acenaphthylene-2-carboxylic acid (4-piperidin-1-ylmethyl-phenyl)-amide]	1.89	32	36	14	–
COc1cc(N2C(=O)Nc3c(C(=O)Nc4ccc(OCCN5CCOCC5)c(OC)c4)sc4ncnc2c34)c(Cl)cc1Cl [Cpd 34, 5-(2,4-dichloro-5-methoxy-phenyl)-4-oxo-4,5-dihydro-3H-1-thia-3,5,6,8-tetraaza-acenaphthylene-2-carboxylic acid [3-methoxy-4-(2-morpholin-4-yl-ethoxy)-phenyl]-amide]	5.37	23	10	-14	–
COc1cc(N2C(=O)Nc3c(C(=O)Nc4ccc(OC)c(OC)c4)sc4ncnc2c34)c(Cl)cc1Cl [Cpd 35, 5-(2,4-dichloro-5-methoxy-phenyl)-4-oxo-4,5-dihydro-3H-1-thia-3,5,6,8-tetraaza-acenaphthylene-2-carboxylic acid (3,4-dimethoxy-phenyl)-amide]	5.71	7	-11	-12	–
COc1ccc(NC(=O)c2sc3ncnc4c3c2NC(=O)N4c2ccc(Br)cc2F)cc1OC [Cpd 37, 5-(4-bromo-2-fluoro-phenyl)-4-oxo-4,5-dihydro-3H-1-thia-3,5,6,8-tetraaza-acenaphthylene-2-carboxylic acild (3,4-dimethoxy-phenyl)-amide]	0.49	11	-13	1	–
COc1cc(NC(=O)c2sc3ncnc4c3c2NC(=O)N4c2ccc(Br)cc2F)ccc1OCCN1CCOCC1 [Cpd 39, 5-(4-bromo-2-fluoro-phenyl)-4-oxo-4,5-dihydro-3H-1-thia-3,5,6,8-tetraaza-acenaphthylene-2-carboxylic acid [3-methoxy-4-(2-morpholin-4-yl-ethoxy)-phenyl]-amide]	0.41	16	11	24	–
O=C(O)c1sc2ncnc3c2c1NC(=O)N3c1ccc(Br)cc1F [Cpd 40, 5-(4-bromo-2-fluoro-phenyl)-4-oxo-4,5-dihydro-3H-1-thia-3,5,6,8-tetraaza-acenaphthylene-2-carboxylic acid]	7.43	3	-5	-19	–
COc1cc(N2C(=O)Nc3c(C(=O)O)sc4ncnc2c34)c(Cl)cc1Cl [Cpd 41, 5-(2,4-dichloro-5-methoxy-phenyl)-4-oxo-4,5-dihydro-3H-1-thia-3,5,6,8-tetraaza-acenaphthylene-2-carboxylic acid]	–	18	29	-17	11
